Values quoted from earlier work, collected in PubChem BioAssay AID1259410 (Chemical Carcinogenesis Research Information System (CCRIS), 2018).

Test system: rodent tumor promotion studies, tumor incidence
Assay: CCRIS tumor promotion studies

## CCO
Carcinogen: N-METHYL-N'-NITRO-N-NITROSOGUANIDINE, 70-25-7, Doses [Carcinogen]: 50 UG/ML IN DRINKING WATER FOR 20 WK, Doses [Promoter]: 0, 2.5 ML/KG BW OF 20% AGENT IN 0.9% SALINE SOLUTION 1/2D BEGINNING 1 WK POST LAST CARCINOGEN DOSE AND CONTINUING FOR DU, Route [Carcinogen]: ORAL, Route [Promoter]: INTRAPERITONEAL, Species: RAT, Strain/Sex: WISTAR/MALE
  outcome: stomach: adenocarcinoma
Carcinogen: N-METHYL-N-NITROSOUREA, 684-93-5, Doses [Carcinogen]: 30 MG/KG BW ONCE AT 50 D OF AGE, Doses [Promoter]: 0, 15% OF CALORIES IN DIET FOR 4 WK BEGINNING 3 WK PRIOR TO CARCINOGEN DOSE (STUDY DURATION: 25 WK), Route [Carcinogen]: INTRAPERITONEAL, Route [Promoter]: ORAL, Species: RAT, Strain/Sex: SPRAGUE-DAWLEY/FEMALE
  outcome: mammary gland: adenocarcinoma
Carcinogen: N-METHYL-N-NITROSOUREA, 684-93-5, Doses [Carcinogen]: 30 MG/KG BW ONCE AT 51 D OF AGE, Doses [Promoter]: 0, 15%, 20% OF CALORIES IN DIET BEGINNING 1 WK POST CARCINOGEN DOSE AND CONTINUING FOR DURATION OF STUDY (STUDY DURATION, Doses [Promoter]: 0, 15%, 20% OF CALORIES IN DIET BEGINNING 1 WK POST CARCINOGEN DOSE AND CONTINUING FOR DURATION OF STUDY (STUDY DURATION, Route [Carcinogen]: INTRAPERITONEAL, Route [Promoter]: ORAL, Species: RAT, Strain/Sex: SPRAGUE-DAWLEY/FEMALE
  outcome: mammary gland: adenocarcinoma
Carcinogen: N-NITROSODIMETHYLAMINE, 62-75-9, Doses [Carcinogen]: 1 PPM IN DRINKING WATER FOR 48 OR 72 WK, Doses [Promoter]: 0, 10% IN DRINKING WATER FOR 48 OR 72 WK (STUDY DURATION: 72 WK), Route [Carcinogen]: ORAL, Route [Promoter]: ORAL, Species: MOUSE, Strain/Sex: STRAIN-A/MALE
  outcome: lung: tumor
Carcinogen: N-NITROSODIMETHYLAMINE, 62-75-9, Doses [Carcinogen]: 5 MG/KG ONCE, Doses [Promoter]: 0, 5, 10, 20% SOLUTION ADMINISTERED WITH CARCINOGEN DOSE (STUDY DURATION: 16 WK), Doses [Promoter]: 0, 5, 10, 20% SOLUTION ADMINISTERED WITH CARCINOGEN DOSE (STUDY DURATION: 16 WK), Route [Carcinogen]: GAVAGE, Route [Promoter]: GAVAGE, Species: MOUSE, Strain/Sex: STRAIN-A/MALE
  outcome: lung: tumor
Carcinogen: N-NITROSODIMETHYLAMINE, 62-75-9, Doses [Carcinogen]: 5 PPM IN DRINKING WATER FOR 4 WK, Doses [Promoter]: 0, 1, 5, 10% IN DRINKING WATER FOR 4 WK (STUDY DURATION: 16 WK), Doses [Promoter]: 0, 1, 5, 10% IN DRINKING WATER FOR 4 WK (STUDY DURATION: 16 WK), Route [Carcinogen]: ORAL, Route [Promoter]: ORAL, Species: MOUSE, Strain/Sex: STRAIN-A/MALE
  outcome: lung: tumor
Carcinogen: N-NITROSOMETHYLBENZYLAMINE, 937-40-6, Doses [Carcinogen]: 0.2 MG/KG BW IN CORN OIL 3/WK FOR 3 WK, Doses [Promoter]: 0, 30% OF TOTAL CALORIES BEGINNING POST CARCINOGEN TREATMENT AND CONTINUING FOR DURATION OF STUDY (STUDY DURATION: 23 WK, Route [Carcinogen]: GAVAGE, Route [Promoter]: ORAL, Species: MOUSE, Strain/Sex: C57BL/FEMALE
  outcome: esophagus: tumor
Carcinogen: N-NITROSOMETHYLBENZYLAMINE, 937-40-6, Doses [Carcinogen]: 0.2 MG/KG IN CORN OIL 3/WK FOR 3 WK, Doses [Promoter]: SUBSTITUTED FOR MALTOSE DEXTRIN IN DIET TO PROVIDE 30% OF TOTAL DIETARY CALORIES BEGINNING POST CARCINOGEN TREATMENT AND, Route [Carcinogen]: GAVAGE, Route [Promoter]: ORAL, Species: MOUSE, Strain/Sex: C57BL/FEMALE
  outcome: esophagus: tumor
Carcinogen: N-NITROSOMETHYLBENZYLAMINE, 937-40-6, Doses [Carcinogen]: 2.5 MG/KG 3/WK FOR 3 WK, Doses [Promoter]: 1-2% IN LIQUID DIET ON DAY 1 AND INCREASING TO 7% BY DAY 8 OF AGENT TREATMENT BEGINNING 1 WK POST LAST CARCINOGEN DOSE F, Route [Carcinogen]: INTRAPERITONEAL, Route [Promoter]: ORAL, Species: RAT, Strain/Sex: SPRAGUE-DAWLEY/MALE
  outcome: esophagus: papilloma
Carcinogen: N-NITROSOPYRROLIDINE, 930-55-2, Doses [Carcinogen]: 6.8 PPM IN DRINKING WATER FOR 4 WK, Doses [Promoter]: 0, 10% IN STERILIZED DISTILLED DRINKING WATER ADMINISTERED WITH CARCINOGEN FOR 4 WK (STUDY DURATION: 36 WK), Route [Carcinogen]: ORAL, Route [Promoter]: ORAL, Species: MOUSE, Strain/Sex: STRAIN-A/MALE
  outcome: lung: tumor
Carcinogen: N-NITROSOPYRROLIDINE, 930-55-2, Doses [Carcinogen]: 40 PPM IN DRINKING WATER FOR 4 WK, Doses [Promoter]: 0, 10% IN STERILIZED DISTILLED DRINKING WATER ADMINISTERED WITH CARCINOGEN FOR 4 WK (STUDY DURATION: 36 WK), Route [Carcinogen]: ORAL, Route [Promoter]: ORAL, Species: MOUSE, Strain/Sex: STRAIN-A/MALE
  outcome: lung: tumor
Carcinogen: NITROSODIETHYLAMINE, 55-18-5, Doses [Carcinogen]: 6.8 PPM IN DRINKING WATER FOR 4 WK, Doses [Promoter]: 0, 10% IN STERILIZED DISTILLED DRINKING WATER ADMINISTERED WITH CARCINOGEN FOR 4 WK (STUDY DURATION: 36 WK), Route [Carcinogen]: ORAL, Route [Promoter]: ORAL, Species: MOUSE, Strain/Sex: STRAIN-A/MALE
  outcome: lung: tumor; forestomach: carcinoma
Doses [Carcinogen]: 1.5 MG/KG IN DMSO 2/WK FOR 10 WK (TOTAL DOSE: 30 MG/KG), Doses [Promoter]: 10% IN DRINKING WATER FOR 56 WK ADMINISTERED 1 WK POST CARCINOGEN DOSES (STUDY DURATION: 57 WK), Route [Carcinogen]: INTRAPERITONEAL, Route [Promoter]: ORAL, Species: RAT, Strain/Sex: ACI/N/MALE
  outcome: liver: hepatocellular carcinoma, neoplastic nodule
